Assay results reported in US20240400544A1, “N-(HYDROXYALKYL (HETERO)ARYL) TETRAHYDROFURAN CARBOXAMIDE ANALOGS AS MODULATORS OF SODIUM CHANNELS” (VERTEX PHARMACEUTICALS INCORPORATED, priority 2021, published 2024).

Biological target: human NaV 1.8 (Homo sapiens, UniProt Q9Y5Y9)
Experiment: E-VIPR Assay Detecting and Measuring NaV Inhibition Properties
Type: cell-based
Conditions: HEK cells expressing a truncated form of human NaV 1.8 with full channel activity; electrical stimulation, membrane potential FRET dyes; read-out: measured IC50 value in the E-VIPR Assay
Text: E-VIPR Assay Detecting and Measuring NaV Inhibition Properties
Sodium ion channels are voltage-dependent proteins that can be activated by inducing membrane voltage changes by applying electric fields. The electrical stimulation instrument and methods of use, referred to as E-VIPR, are described in International Publication No. WO 2002/008748 A3 and C.-J. Huang et al. Characterization of voltage-gated sodium channel blockers by electrical stimulation and fluorescence detection of membrane potential, 24 Nature Biotech. 439-46 (2006), both of which are incorporated by reference in their entirety. The instrument comprises a microtiter plate handler, an optical system for exciting the coumarin dye while simultaneously recording the coumarin and oxonol emissions, a waveform generator, a current- or voltage-controlled amplifier, and parallel electrode pairs that are inserted into assay plate wells. Under integrated computer control, this instrument passes user-programmed electrical stimulus protocols to cells within the wells of the microtiter plate.
16-20 hours prior to running the assay on E-VIPR, HEK cells expressing a truncated form of human NaV 1.8 with full channel activity were seeded into microtiter 384-well plates, pre-coated with matrigel, at a density of 25,000 cells per well. 2.5-5% KIR2.1 Bacmam virus was added to the final cell suspension before seeding into cell plates. HEK cells were grown in Dulbecco's Modified Eagle's Medium (DMEM) supplemented with 10% FBS (Fetal Bovine Serum, qualified; Sigma #F4135), 1% NEAA (Non-Essential Amino Acids, Gibco #11140), 1% HEPES (Gibco #15630), 1% Pen-Strep (Penicillin-Streptomycin; Gibco #15140) and 5 μg/ml Blasticidin (Gibco #R210-01). Cells were expanded in vented cap cell culture flasks, with 90-95% humidity and 5% CO2.
2.5-5% KIR 2.1 Bacmam virus (produced in-house), prepared as described in Section 3.3 of J. A. Fornwald et al., Gene Expression in Mammalian Cells Using BacMam, a Modified Baculovirus System, 1350 Methods in Molecular Biology 95-116 (2016), the entire contents of which are incorporated by reference. The concentration used can be dependent on viral titer of each batch.
5 mM DiSBAC6(3), a voltage sensitive oxonol acceptor (CAS number 169211-44-3; 5-[3-(1,3-dihexylhexahydro-4,6-dioxo-2-thioxo-5-pyrimidinyl)-2-propen-1-ylidene]-1,3-dihexyldihydro-2-thioxo-4,6(1H,5H)-pyrimidinedione), in dry DMSO. The preparation of DiSBAC6(3) is analogous to that of DiSBAC4(3) as described in Voltage Sensing by Fluorescence Resonance Energy Transfer in Single Cells, Gonzalez, J. E. and Tsien, R. Y. (1995) Biophys. J. 69, 1272-1280.
5 mM CC2-DMPE, a commercially available membrane-bound coumarin phospholipid FRET donor (ThermoFisher Scientific catalog number K1017, CAS number 393782-57-5; tetradecanoic acid, 1,1′-[(1R)-1-[8-(6-chloro-7-hydroxy-2-oxo-2H-1-benzopyran-3-yl)-3-hydroxy-3-oxido-8-oxo-2,4-dioxa-7-aza-3-phosphaoct-1-yl]-1,2-ethanediyl] ester) was prepared in dry DMSO. See also, Improved indicators of cell membrane potential that use fluorescence resonance energy transfer, Gonzalez, J. E. and Tsien, R. Y. (1997) Chem. Biol. 4, 269-277.
Voltage Assay Background Suppression Compound (VABSC-1) is prepared in H2O (89-363 mM, range used to maintain solubility)
Human Serum (HS, Millipore #S1P1-01KL, or Sigma SLBR5469V and SLBR5470V as a 50%/50% mixture, for 25% assay final concentration)
• Sodium Chloride 160 mM (9.35 g/L), Potassium Chloride, 4.5 mM (0.335 g/L), Glucose • 10 mM (1.8 g/L), Magnesium Chloride (Anhydrous) 1 mM (0.095 g/L), Calcium • Chloride 2 mM (0.222 g/L), HEPES 10 mM (2.38 g/L) in water.
• Sodium Chloride 96 mM (5.61 g/L), Potassium Chloride 4.5 mM (0.335 g/L), • Tetramethylammonium (TMA)-Cl 64 mM (7.01 g/L), Glucose 10 mM (1.8 g/L), • Magnesium Chloride (Anhydrous) 1 mM (0.095 g/L), Calcium Chloride 2 mM (0.222 • g/L) HEPES 10 mM (2.38 g/L) in water. […]

Chain of human NaV 1.8 (Q9Y5Y9 126-1722 limits assumed): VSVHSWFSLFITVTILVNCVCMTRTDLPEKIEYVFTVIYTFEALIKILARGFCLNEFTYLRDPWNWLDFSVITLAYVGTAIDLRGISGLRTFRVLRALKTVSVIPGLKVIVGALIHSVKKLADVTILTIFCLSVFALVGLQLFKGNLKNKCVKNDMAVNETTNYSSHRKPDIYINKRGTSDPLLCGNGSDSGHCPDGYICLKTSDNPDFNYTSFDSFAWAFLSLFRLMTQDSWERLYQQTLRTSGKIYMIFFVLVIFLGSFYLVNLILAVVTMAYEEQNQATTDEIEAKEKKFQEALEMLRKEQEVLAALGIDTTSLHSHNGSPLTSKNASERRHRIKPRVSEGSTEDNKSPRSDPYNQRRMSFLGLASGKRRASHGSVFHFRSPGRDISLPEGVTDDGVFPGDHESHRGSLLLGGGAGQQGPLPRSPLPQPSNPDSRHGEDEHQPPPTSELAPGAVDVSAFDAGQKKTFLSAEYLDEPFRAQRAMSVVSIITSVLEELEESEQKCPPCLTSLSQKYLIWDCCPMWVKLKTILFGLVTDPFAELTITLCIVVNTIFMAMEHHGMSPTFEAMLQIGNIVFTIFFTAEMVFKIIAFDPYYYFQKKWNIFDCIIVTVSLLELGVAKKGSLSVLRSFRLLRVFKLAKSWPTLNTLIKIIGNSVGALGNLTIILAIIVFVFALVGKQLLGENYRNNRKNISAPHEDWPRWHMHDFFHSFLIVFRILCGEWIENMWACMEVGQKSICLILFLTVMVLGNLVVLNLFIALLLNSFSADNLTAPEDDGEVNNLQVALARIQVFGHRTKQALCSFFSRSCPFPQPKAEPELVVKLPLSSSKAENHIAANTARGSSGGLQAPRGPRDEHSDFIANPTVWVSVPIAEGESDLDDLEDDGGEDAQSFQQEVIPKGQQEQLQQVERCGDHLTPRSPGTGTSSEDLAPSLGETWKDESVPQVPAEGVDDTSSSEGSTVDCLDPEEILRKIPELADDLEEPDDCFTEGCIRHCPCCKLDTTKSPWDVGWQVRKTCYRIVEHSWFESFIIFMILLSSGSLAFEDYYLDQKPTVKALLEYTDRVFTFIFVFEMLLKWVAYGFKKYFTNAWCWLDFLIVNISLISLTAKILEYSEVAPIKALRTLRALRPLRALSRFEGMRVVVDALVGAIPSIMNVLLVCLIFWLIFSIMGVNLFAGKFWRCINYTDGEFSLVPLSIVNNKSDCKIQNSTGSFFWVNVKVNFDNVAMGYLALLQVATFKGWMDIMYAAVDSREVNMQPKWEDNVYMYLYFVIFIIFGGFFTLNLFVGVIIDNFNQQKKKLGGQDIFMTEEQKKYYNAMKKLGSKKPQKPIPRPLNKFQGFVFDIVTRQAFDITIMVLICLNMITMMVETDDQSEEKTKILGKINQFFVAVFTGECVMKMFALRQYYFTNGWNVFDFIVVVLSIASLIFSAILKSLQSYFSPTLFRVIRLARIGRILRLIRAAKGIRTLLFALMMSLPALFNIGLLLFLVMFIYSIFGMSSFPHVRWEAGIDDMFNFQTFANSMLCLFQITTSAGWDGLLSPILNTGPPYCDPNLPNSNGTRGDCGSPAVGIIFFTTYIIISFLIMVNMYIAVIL

Row | IC50 [nM] | SMILES
1 | 10 to 100 | COCCOc1c([C@H]2[C@H](C(=O)Nc3ccc(C(O)COC)nc3)O[C@@](C)(C(F)(F)F)[C@H]2C)ccc(F)c1F (single isomer, unassigned) [Compound 21, rel-(2R*,3S*,4S*,5R*)-3-(3,4-difluoro-2-(2-methoxyethoxy)phenyl)-N-(6-(1-hydroxy-2-methoxyethyl)pyridin-3-yl)-4,5-dimethyl-5-(trifluoromethyl)tetrahydrofuran-2-carboxamide]
2 | 10 to 100 | C[C@H]1[C@@H](c2ccc(F)c(F)c2OCC2CCOC2)[C@H](C(=O)Nc2ccc(CO)nc2)O[C@@]1(C)C(F)(F)F (stereo partly drawn) [Compound 9, (2R,3S,4S,5R)-3-(3,4-difluoro-2-((tetrahydrofuran-3-yl)methoxy)phenyl)-N-(6-(hydroxymethyl)pyridin-3-yl)-4,5-dimethyl-5-(trifluoromethyl)tetrahydrofuran-2-carboxamide]
3 | 10 to 100 | COc1c([C@H]2[C@H](C(=O)Nc3cnc4c(c3)CCC4O)O[C@@](C)(C(F)(F)F)[C@H]2C)ccc(F)c1F (single isomer, unassigned) [Compound 4, rel-(2R*,3S*,4S*,5R*)-3-(3,4-difluoro-2-methoxyphenyl)-N-(7-hydroxy-6,7-dihydro-5H-cyclopenta[b]pyridin-3-yl)-4,5-dimethyl-5-(trifluoromethyl)tetrahydrofuran-2-carboxamide]
